# In patent US10821091B2, “Retinoid compositions and methods of increasing immune cell-mediated killing of IDH mutant cancer cells” (UNIVERSITY OF PITTSBURGH—OF THE COMMONWEALTH SYSTEM OF …, priority 2017, dated 2020):
# Tests used:
# [1] = system: NKG2D ligands in IDH mutant cells; assay: qPCR of NKG2D ligand expression in ATRA-treated glioma cells; type: cell-based, human; details: 1 μM ATRA 48 hours, vs DMSO-treated cells
# Description: All-trans Retinoic acid (ATRA) treatment of astrocytes and primary glioma cells. ATRA was purchased from Sigma Aldrich® and reconstituted in DMSO. ATRA was added at a 1 μM final concentration to cell culture medium for 48 hours. After treatment, the cells either lysed in Trizol™ for qPCR analysis, or were used in NK cytotoxicity assays.
# Quantitative Real time RT-PCR. 5×10^5 IDH mutant and WT astrocytes, as well as patient glioma cells were lyzed in Trizol and RNA was extracted from the cells using the Chloroform extraction method. cDNA was transcribed from the RNA using iScript cDNA synthesis kit (BioRad). Real-time PCR was performed on an CFX96 Touch™ Real-Time PCR Detection System (Bio-Rad) equipped with a 96-well reaction plate. Briefly, 2 μL cDNA was added to 5 μL of the 2×SYBR Green PCR mastermix (Thermo Scientific), 800 nM of each primer, and water was added to 10 μL. The thermal denaturation protocol was run at the end of the PCR to determine the number of products that were present in the reaction. Reactions were typically run in triplicates. The cycle number at which the reaction crossed an arbitrarily-placed threshold (CT) was determined for each gene and the relative amount of each gene to 18 S rRNA was described using the equation 2^−ΔCT where ΔCT=(CTtargetRNA−CT18S rRNA).
# ATRA induced increased cytotoxic killing of IDH mutant cells in an NKG2D-ligand dependent manner. The ability of ATRA to sensitize IDH mutant cells to killing by NK cells was evaluated. For this purpose, IDH mutant and WT cells were treated with 1 μM ATRA for 48 hours and assessed for killing by NK-92 cells (ATCC) at a 10:1 E:T ratio. […] Also, as observed in vivo, increased NK-92 killing in IDH mutant cells was dependent upon NKG2D engagement. […] ATRA-treated cells were also evaluated for expression of NKG2D ligands.
# IDH mutant gliomas = assay: Survival in RCAS tva immunocompetent glioma mouse model; type: in vivo, mice
# Description: Immunocompetent mouse model. The RCAS/tva system was used to ectopically express muIDH1 (R132H) in PDGF-driven gliomas. RCAS retroviral vectors were used to transfer genes to specific cell types in vivo that express the receptor tva to develop a pair of isogenic mouse tumor models that differ only in IDH1 mutation status. Three RCAS vectors expressing PDGF, wtIDH1-shp53, or muIDH1 (R132H)-shp53 were constructed and used in three different Ntva mouse strains. Mice were injected with RCAS-PDGF-producing DF1 cells together with either DF1 cells producing RCAS-wtIDH1-shp53 (wtIDH1) or RCAS-mutantIDH1-shp53 (muIDH1). Tumors were generated from these injections with identical genomic backgrounds, with the initiating events differing only in IDH1 mutation status.
# IDH mutant tumors = assay: NK depletion (anti-NK1.1) experiment in tumor-bearing C57BL6/J nude mice; type: in vivo
# Description: Mice. […] DMSO-treated mice were used as controls.
# Anti-tumor effects of ATRA in vivo is dependent upon NK activity in vivo. Contrary to the delayed pro-differentiation effect of ATRA in vitro (FIG. 13A through 13D), the anti-tumor effects in vivo were more immediate. Thus, it was hypothesized that ATRA exercises alternate pathways to curb tumor growth. […] To further substantiate the role of NKs in anti-tumor effect of ATRA, a NK blocking experiment was performed in vivo. Briefly, IDH mutant or WT tumor-bearing C57BL6/J nude mice were injected with […] anti-NK1.1 (or control isotype) antibody intra-peritoneally on the first day of ATRA treatment. ATRA treatment was started when tumors were about 25 mm^2 in size and administered every other day.
# [2] = system: IDH mutant cells from primary gliomas; assay: Gene microarray (Clariom S) and pathway analysis; type: cell-based, human
# Description: To evaluate overall gene expression changes and to decipher pathway activation in IDH mutants after ATRA treatment, a gene microarray was performed. IDH wt and mutant cells from primary gliomas were treated with 1 μM ATRA for 48 hours and RNA was extracted from the cells. Microarray analysis was performed using Clariom S microarray chips.
# [3] = system: IDH mutant primary glioma neurospheres; assay: Differentiation of primary glioma neurospheres; type: cell-based, human; details: for morphological changes: 1 μM ATRA
# Description: Glioma cell culture. Resected tumors from Glioma patients (both IDH wt and mutant) were mechanically dissociated to form a single cell suspension. Contaminating RBCs were removed using an RBC lysis buffer (eBioscience) and cells were propagated into neural stem cells in Neurocult™ NS-A proliferation kit supplemented with 20 ng/mL Human Recombinant EGF, 10 ng/mL Human Recombinant bFGF) and 2 μg/mL Heparin Solution (Stemcell Technologies Canada Inc.). After 3 weeks in culture, neurospheres were moved to Complete Medium (CM) in order to propagate differentiation into adherent cell lines.
# All-trans retinoic acid (ATRA) is a differentiating agent for multiple types of cancers, including IDH mutant acute myeloid leukemia (AML). Therefore, efficacy of ATRA as a differentiating agent in IDH mutant gliomas was evaluated. IDH mutant or WT primary glioma neurospheres were treated with 1 μM ATRA for 2, 7 or 14 days. At each time point, cells were evaluated for morphological changes and changes in their molecular profile. Vehicle (DMSO)-treated cells served as controls, while cells treated with 10% FBS served as differentiation (positive) controls.
# [4] = system: RBP1 in IDH mutant (HT-1080) cells; assay: RBP1 levels by qPCR in chondrosarcoma cells; type: cell-based; details: 1 μM or 10 μM ATRA, 48 hours
# Source text: IDH mutant tumor cells produce reduced amounts of RBP1 compared to WT IDH tumor cells (FIG. 11D).
compound,measurement,setting,value
"CC1=C(/C=C/C(C)=C/C=C/C(C)=C/C(=O)O)C(C)(C)CCC1 [ATRA, all-trans retinoic acid]",expression of NKG2D ligand MICA,[1],increased expression
same,expression of NKG2D ligand MICB,[1],increased expression
same,expression of NKG2D ligand ULBP1,[1],increased expression
same,expression of NKG2D ligand ULBP3,[1],increased expression
same,infiltration of NK cells in the tumor (immunohistochemistry),IDH mutant gliomas; ATRA-treated mice,increased infiltration of NK cells in the tumor
same,survival,"IDH mutant gliomas; mice bearing IDH mutant tumors, ATRA every alternate day for 21 days, vs vehicle-treated/IDH wild type",significantly longer survival
same,levels of NKs in TILs by flow cytometry,IDH mutant tumors; ATRA-treated mice vs DMSO-treated controls,higher levels of NKs
same,tumor growth,"IDH mutant tumors; IDH mutant tumor-bearing C57BL6/J nude mice, ATRA every other day, vs DMSO-treated controls",significantly slower tumor growth
same,tumor growth after depletion of NKs (anti-NK1.1),IDH mutant tumors; IDH mutant tumor-bearing mice treated with ATRA,depletion of NKs abrogated the anti-tumor effects of ATRA
same,"gene expression of inflammatory chemokines CXCL1, CXCL9 and CXCL10",[2]; 1 μM ATRA 48 hours (data not shown),upregulated the gene expression of multiple inflammatory chemokines
same,pathway analysis of upregulated genes,"[2]; IDH mutant cells, 1 μM ATRA 48 hours",immune cell chemotaxis was one of the most upregulated pathways
same,morphological changes,[3]; 14 days,"induced morphological changes in IDH mutant primary glioma neurospheres, but not WT neurospeheres"
same,morphological changes,[3]; earlier time points,Minimal morphological changes
same,time of ATRA treatment after which differentiation occurred,[3]; IDH mutant glioma stem cells,> 10 days
same,"levels of stem cell markers Sox2, CD133 and Nestin","[3]; IDH mutant neurospheres, ATRA 14 days, PCR (Nestin also flow cytometry)",significantly lower levels
same,"levels of GFAP, astrocytic differentiation marker","[3]; IDH mutant neurospheres, ATRA 14 days, PCR and flow cytometry",increased levels of GFAP
same,RBP1 levels,[4],increased RBP1 levels in IDH mutant chondrosarcoma cells in a dose dependent manner
